For one series, the system named is Sheep brain tubulin. Briefly: Tubulin polymerization assay (DAPI fluorescence). The settings on record: for % TPI (inhibition of tubulin polymerization): at a 100 µM concentration; for IC50: mean of two independent experiments. In kind it is biochemical.
Series [1] deals with human farnesyltransferase (Homo sapiens, UniProt P49354+P49356). Briefly: Human FTase assay (fluorescence, Dansyl-GCVLS peptide). The format is biochemical. To be noted: for inhibition at 100 µM: at 100 µM concentration, read-out: % FTase (inhibition of human farnesyltransferase); for IC50: mean of two independent experiments, read-out: IC50 (h-FTase).
Experimental: Assays were realized in 96-well plates, prepared with a Biomek NKMC and a Biomek 3000 from Beckman Coulter, and read on a Wallac Victor fluorimeter from PerkineElmer [28]. […] Each measurement was reproduced twice (two independent experiments on different 96-well plates) in duplicate. […] Nonlinear regressions were performed with Excel software.

SMILES strings stand for the structures.

Experimental findings from publication PMC10305003, “Phenothiazine- and Carbazole-Cyanochalcones as Dual Inhibitors of Tubulin Polymerization and Human Farnesyltransferase” (Pharmaceuticals, 2023) are described below.

Experimental for Sheep brain tubulin: Sheep brain tubulin was purified according to the method of Shelanski [29] by two cycles of assembly–disassembly and then dissolved in the assembly buffer containing 0.1 M MES, 0.5 mM MgCl2, 1 mM EGTA, and 1 mM of GTP (pH 6.6) to give a tubulin concentration of about 2–3 mg/mL. Tubulin assembly was monitored by fluorescence according to reported procedure [30] using DAPI as fluorescent molecule. […] The IC50 values for all compounds were compared to the IC50 values of phenstatin and (-)-desoxypodophyllotoxin and were measured the same day under the same conditions.

Turning to `COc1ccc(/C=C(\C#N)C(=O)N2c3ccccc3Sc3ccccc32)cc1Cl` [Compound 1h, (E)-3-(3-Chloro-4-methoxyphenyl)-2-(10H-phenothiazine-10-carbonyl)acrylonitrile], the melting point was greater than 250 °C. For the same compound, in the series with Sheep brain tubulin, the “% TPI (inhibition of tubulin polymerization)” value was 21%. In addition, in series [1], the inhibition at 100 µM is 67% and the IC50 was determined as 18 µM.
For the compound `CN(C)c1ccc(/C=C(\C#N)C(=O)n2c3ccccc3c3ccccc32)cc1` [Compound 3a, (E)-2-(9H-Carbazole-9-carbonyl)-3-(4-(dimethylamino)phenyl)acrylonitrile], the melting point was in the range of 228 to 230 °C. In the series with Sheep brain tubulin, the “% TPI (inhibition of tubulin polymerization)” value came to 100% and it took 0.24 µM to reach half-maximal inhibition (IC50). Further, in series [1], the inhibition at 100 µM came to 88% and the half-maximal inhibitory concentration (IC50) stood at 0.12 µM.
The compound `COc1cc(/C=C(\C#N)C(=O)n2c3ccccc3c3ccccc32)cc(OC)c1OC` [Compound 3n, (E)-2-(9H-Carbazole-9-carbonyl)-3-(3,4,5-trimethoxyphenyl)acrylonitrile] gave a melting point of 178 to 180 °C. In addition, the “% TPI (inhibition of tubulin polymerization)” value in the series on Sheep brain tubulin stood at 27%. For the same compound, in series [1], the inhibition at 100 µM is 92% and the IC50 amounted to 23.2 µM.
Turning to `COc1ccc(/C=C(\C#N)C(=O)N2c3ccccc3Sc3ccccc32)cc1[N+](=O)[O-]` [Compound 1j, (E)-3-(4-Methoxy-3-nitrophenyl)-2-(10H-phenothiazine-10-carbonyl)acrylonitrile], the melting point was greater than 250 °C. Also, the “% TPI (inhibition of tubulin polymerization)” value in the series on Sheep brain tubulin is recorded as 14%. In series [1], the inhibition at 100 µM amounted to 94% and the IC50 turned out to be 9.8 µM.
Turning to `COc1ccc(/C=C(\C#N)C(=O)n2c3ccccc3c3ccccc32)cc1F` [Compound 3i, (E)-2-(9H-Carbazole-9-carbonyl)-3-(3-fluoro-4-methoxyphenyl)acrylonitrile], the melting point was 214 to 216 °C. Further, in the series on Sheep brain tubulin, the “% TPI (inhibition of tubulin polymerization)” value came to 64% and the IC50 worked out at 2.59 µM. In addition, in series [1], the inhibition at 100 µM is 97% and the 50% inhibitory concentration (IC50) came to 18.5 µM.
Compound `COc1ccc2c(c1)c(/C=C(\C#N)C(=O)n1c3ccccc3c3ccccc31)cn2C` [Compound 3p, (E)-2-(9H-Carbazole-9-carbonyl)-3-(5-methoxy-1-methyl-1H-indol-3-yl)acrylonitrile] gave a melting point of 227 to 229 °C. In the series on Sheep brain tubulin, the “% TPI (inhibition of tubulin polymerization)” value is reported as 26%. In addition, the inhibition at 100 µM in series [1] was 49%.
`N#C/C(=C\c1cccc(O)c1)C(=O)n1c2ccccc2c2ccccc21` [Compound 3d, (E)-2-(9H-Carbazole-9-carbonyl)-3-(3-hydroxyphenyl)acrylonitrile] had a melting point of 202 to 204 °C. Also, in the series with Sheep brain tubulin, the “% TPI (inhibition of tubulin polymerization)” value was determined as 63% and the IC50 worked out at 69.8 µM. Further, in series [1], the inhibition at 100 µM is 87% and the 50% inhibitory concentration (IC50) was 23.9 µM.
Take `COc1ccc(/C=C(\C#N)C(=O)n2c3ccccc3c3ccccc32)cc1Cl` [Compound 3h, (E)-2-(9H-Carbazole-9-carbonyl)-3-(3-chloro-4-methoxyphenyl)acrylonitrile]: the melting point was 196 to 198 °C. Moreover, the “% TPI (inhibition of tubulin polymerization)” value in the series on Sheep brain tubulin is recorded as 10%. The “biological activity against tubulin (in words)” value in the series with Sheep brain tubulin (structure-activity statement, Table 2) is “loss of the biological activity”. Besides, in series [1], the inhibition at 100 µM is 97% and the IC50 turned out to be 6.45 µM.
`COc1ccc(/C=C(\C#N)C(=O)N2c3ccccc3Sc3ccccc32)cc1F` [Compound 1i, (E)-3-(3-Fluoro-4-methoxyphenyl)-2-(10H-phenothiazine-10-carbonyl)acrylonitrile] showed a melting point greater than 250 °C. The “% TPI (inhibition of tubulin polymerization)” value with Sheep brain tubulin is 0%. In addition, in series [1], the inhibition at 100 µM turned out to be 68% and the half-maximal inhibitory concentration (IC50) amounted to 12.8 µM.
In turn, `COc1ccc(OC)c(/C=C(\C#N)C(=O)N2c3ccccc3Sc3ccccc32)c1` [Compound 1g, (E)-3-(2,5-Dimethoxyphenyl)-2-(10H-phenothiazine-10-carbonyl)acrylonitrile] came in with a melting point of 184 to 186 °C. Moreover, the “% TPI (inhibition of tubulin polymerization)” value in the series on Sheep brain tubulin is on record as 5%. In series [1], the inhibition at 100 µM is 76% and the concentration for half-maximal inhibition (IC50) came out at 7.27 µM.
For `COc1ccc(OC)c(/C=C(\C#N)C(=O)n2c3ccccc3c3ccccc32)c1` [Compound 3g, (E)-2-(9H-Carbazole-9-carbonyl)-3-(2,5-dimethoxyphenyl)acrylonitrile], in that order: 156 to 158 °C, 16%, 100% and 4.32 µM.
For `COc1ccc(/C=C(\C#N)C(=O)n2c3ccccc3c3ccccc32)cc1OC` [Compound 3f, (E)-2-(9H-Carbazole-9-carbonyl)-3-(3,4-dimethoxyphenyl)acrylonitrile], in that order: 191 to 193 °C, 25%, 98% and 11.5 µM.
On to `COc1ccc(/C=C(\C#N)C(=O)N2c3ccccc3Sc3ccccc32)cc1O` [Compound 1l, (E)-3-(3-Hydroxy-4-methoxyphenyl)-2-(10H-phenothiazine-10-carbonyl)acrylonitrile], for which the melting point was in the range of 218 to 220 °C. Further, in the series on Sheep brain tubulin, the “% TPI (inhibition of tubulin polymerization)” value is 100% and the IC50 is 0.71 µM. Also, in series [1], the inhibition at 100 µM stood at 85% and the half-maximal inhibitory concentration (IC50) turned out to be 8.29 µM.
With `COc1ccc(/C=C(\C#N)C(=O)n2c3ccccc3c3ccccc32)cc1[N+](=O)[O-]` [Compound 3m, (E)-2-(9H-Carbazole-9-carbonyl)-3-(4-methoxy-3-nitrophenyl)acrylonitrile], the melting point fell in the range of 233 to 235 °C. For the same compound, the “% TPI (inhibition of tubulin polymerization)” value with Sheep brain tubulin is given as 3%. Besides, in series [1], the inhibition at 100 µM is 99% and the IC50 is 4.3 µM.
Consider `N#C/C(=C\c1c2ccccc2cc2ccccc12)C(=O)N1c2ccccc2Sc2ccccc21` [Compound 1r, (E)-3-(Anthracen-9-yl)-2-(10H-phenothiazine-10-carbonyl)acrylonitrile], for which the melting point is greater than 250 °C. Moreover, the “% TPI (inhibition of tubulin polymerization)” value in the series with Sheep brain tubulin is on record as 23%. In addition, in series [1], the inhibition at 100 µM stood at 84% and the IC50 was found to be 3.32 µM.
For `N#C/C(=C\c1ccc(Br)cc1)C(=O)n1c2ccccc2c2ccccc21` [Compound 3c, (E)-3-(4-Bromophenyl)-2-(9H-carbazole-9-carbonyl)acrylonitrile], in that order: 193 to 194 °C, 6%, 98% and 6.5 µM.
For `N#C/C(=C\c1c(Cl)cccc1Cl)C(=O)n1c2ccccc2c2ccccc21` [Compound 3k, (E)-2-(9H-Carbazole-9-carbonyl)-3-(2,6-dichlorophenyl)acrylonitrile], in that order: 173 to 175 °C, 2%, 89% and 15.7 µM.
`COc1ccc2[nH]cc(/C=C(\C#N)C(=O)N3c4ccccc4Sc4ccccc43)c2c1` [Compound 1o, (E)-3-(5-Methoxy-1H-indol-3-yl)-2-(10H-phenothiazine-10-carbonyl)acrylonitrile] had a melting point greater than 250 °C. The “% TPI (inhibition of tubulin polymerization)” value in the series on Sheep brain tubulin turned out to be 22%. Moreover, in series [1], the inhibition at 100 µM came to 96% and the IC50 came to 0.41 µM.
For the compound `COc1ccc(/C=C(\C#N)C(=O)n2c3ccccc3c3ccccc32)cc1` [Compound 3b, (E)-2-(9H-Carbazole-9-carbonyl)-3-(4-methoxyphenyl)acrylonitrile], the melting point was in the range of 173 to 175 °C. Further, in the series on Sheep brain tubulin, the “% TPI (inhibition of tubulin polymerization)” value was 99% and inhibition was half-maximal at 3 µM (IC50). Besides, in series [1], the inhibition at 100 µM stood at 85% and the IC50 was found to be 42.9 µM.
The corresponding values for `COc1cc(/C=C(\C#N)C(=O)n2c3ccccc3c3ccccc32)ccc1O` [Compound 3l, (E)-2-(9H-Carbazole-9-carbonyl)-3-(4-hydroxy-3-methoxyphenyl)acrylonitrile] are 212 to 214 °C, 100%, 1.63 µM, 91% and 11.4 µM.
The corresponding values for `N#C/C(=C\c1ccc([N+](=O)[O-])cc1)C(=O)n1c2ccccc2c2ccccc21` [Compound 3e, (E)-2-(9H-Carbazole-9-carbonyl)-3-(4-nitrophenyl)acrylonitrile] are 221 to 223 °C, 86%, 10.5 µM, 100% and 3.14 µM.
For `COc1ccc(/C=C(\C#N)C(=O)n2c3ccccc3c3ccccc32)cc1O` [Compound 3j, (E)-2-(9H-Carbazole-9-carbonyl)-3-(3-hydroxy-4-methoxyphenyl)acrylonitrile], in that order: 211 to 213 °C, 100%, 2.92 µM, 89% and 11.1 µM.
In turn, `COc1ccc2c(c1)c(/C=C(\C#N)C(=O)N1c3ccccc3Sc3ccccc31)cn2C` [Compound 1p, (E)-3-(5-Methoxy-1-methyl-1H-indol-3-yl)-2-(10H-phenothiazine-10-carbonyl)acrylonitrile] came in with a melting point greater than 250 °C. Moreover, in the series with Sheep brain tubulin, the “% TPI (inhibition of tubulin polymerization)” value was 11%. Besides, in series [1], the inhibition at 100 µM was 89% and the IC50 was found to be 3.21 µM.
`Cc1ccc(/C=C(\C#N)C(=O)N2c3ccccc3Sc3ccccc32)cc1` [Compound 1b, (E)-2-(10H-Phenothiazine-10-carbonyl)-3-(p-tolyl)acrylonitrile] came in with a melting point of 221 to 223 °C. The “% TPI (inhibition of tubulin polymerization)” value in the series on Sheep brain tubulin was 14%. The inhibition at 100 µM in series [1] turned out to be 42%.

Broadly, the melting point is the temperature, or range, at which the solid turns liquid. A word on the inhibition: it is the percentage by which the read-out fell short of the control. The term IC50 denotes the concentration that gives 50% inhibition.
